Laboratory results published in PubChem BioAssay (NCI).
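96-well plates; 48 h exposure; 5 concentrations. Endpoints by linear interpolation between flanking doses. Not reached: highest tested concentration assigned. TGI is the concentration that stops growth completely.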

What was measured:
Assay in all cases: DTP human tumour cell line panel, 48 h
[1] = test system: RXF 393 renal
[2] = test system: NCI-H460 lung
[3] = test system: MCF7 breast
[4] = test system: MOLT-4 leukemia
[5] = test system: OVCAR-3 ovarian
[6] = test system: MALME-3M melanoma
[7] = test system: NCI/ADR-RES ovarian
[8] = test system: SF-268 CNS
[9] = test system: RPMI-8226 leukemia
[10] = test system: SNB-19 CNS
[11] = test system: PC-3 prostate
[12] = test system: A498 renal
[13] = test system: SW-620 colon
[14] = test system: SF-295 CNS
[15] = test system: UO-31 renal
[16] = test system: SK-MEL-5 melanoma
[17] = test system: A549 NSCLC
[18] = test system: COLO 205 colon
[19] = test system: SK-MEL-2 melanoma
[20] = test system: BT-549 breast

| SMILES | TGI [1] | TGI [2] | TGI [3] | TGI [4] | TGI [5] | TGI [6] | TGI [7] | TGI [8] | TGI [9] | TGI [10] | TGI [11] | TGI [12] | TGI [13] | TGI [14] | TGI [15] | TGI [16] | TGI [17] | TGI [18] | TGI [19] | TGI [20] |
| --- | --- | --- | --- | --- | --- | --- | --- | --- | --- | --- | --- | --- | --- | --- | --- | --- | --- | --- | --- | --- |
| Nc1nc(NCC2(CO)CCC2)cc(=O)[nH]1 | > 100 µM | > 100 µM | > 100 µM | > 100 µM | > 100 µM | > 100 µM | > 100 µM | > 100 µM | > 100 µM | > 100 µM | > 100 µM | > 100 µM | > 100 µM | > 100 µM | > 100 µM | > 100 µM | > 100 µM | > 100 µM | > 100 µM | > 100 µM |
| O=c1oc2ccccc2c(O)c1C(c1ccc2c(c1)Cc1ccccc1-2)c1c(O)c2ccccc2oc1=O | 35.5 µM | 62.4 µM | 51.1 µM | > 100 µM | > 100 µM | 71.4 µM | > 100 µM | 68.4 µM | > 100 µM | > 100 µM | > 100 µM | > 100 µM | 90.9 µM | 57.4 µM | 33.1 µM | 39.9 µM | 44.4 µM | 37.2 µM | 74.2 µM | 53.6 µM |
